Experimental data as given in patent publication US7750184B2, “Vitamin D receptor modulators” (Eli Lilly and Company, priority 2003, dated 2010).

Experiments:
[1] = test system: rat osteocalcin promoter; assay: OCN (osteocalcin) promoter assay; type: cell-based; details: RG-15 (ROS 17/2.8) cells, 48 hr treatment, luciferase reporter
Protocol: 3. The OCN (osteocalcin) Promoter Assay
The OCN Promoter Assay is an indicator and marker for osteoporosis. […] Preferred assay results are less than 50 nM.
(3) Materials and Method for the OCN Promoter Assay:
The activation of osteocalcin by VDR ligands was evaluated in a rat osteoblast-like cell line RG-15 (ROS 17/2.8) stably expressing rat osteocalcin promoter fused with luciferase reporter gene. […] Confluent RG-15 cells maintained in DMEM/F-12 medium (3:1) containing 5% FBS, 300 μg/ml G418 and at 37° C. under 5% CO2/95% air atmosphere were trypsinized (0.25% trypsin) and plated into white opaque 96-well cell culture plates (25000 cells/well). After 24 hr, cells (in DMEM/F-12 medium+2% FBS) were treated with various concentrations of compounds, dissolved in DMSO. The final DMSO concentration remained at 0.01% (v/v). After 48 hr treatment, the medium was removed, cells were lysed with 50 μl of lysis buffer (From Luciferase reporter assay system, Roche Diagnostics, Indianapolis, Ind.) and assayed for luciferase activity using the Luciferase Reporter Gene Assay kit from Boehringer Mannheim as per manufacturer's specifications.

[2] = molecular target: T1, VDR (Homo sapiens, UniProt P11473); assay: Caco-2 cell co-transfection assay (VDR CTF); type: cell-based; details: Caco-2 cells, pGal4-VDR-LBD co-transfection, luciferase reporter
T1 construct: the receptor expression vector pGal4-VDR-LBD (10 ng); expressed in transfected cells; host or cells: Caco-2 cells
T1 sequence (P11473 127-423 limits assumed): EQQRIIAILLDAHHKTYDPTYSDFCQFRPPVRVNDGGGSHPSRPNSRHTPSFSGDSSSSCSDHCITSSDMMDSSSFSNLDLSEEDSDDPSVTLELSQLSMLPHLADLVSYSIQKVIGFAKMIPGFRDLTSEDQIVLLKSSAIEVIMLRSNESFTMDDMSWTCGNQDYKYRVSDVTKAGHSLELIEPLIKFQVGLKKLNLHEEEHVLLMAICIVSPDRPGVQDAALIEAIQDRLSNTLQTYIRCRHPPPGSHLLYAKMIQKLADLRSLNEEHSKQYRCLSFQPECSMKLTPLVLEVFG
Protocol: 2. The Caco-2 Cell Co-Transfection Assay:
The Caco-2 cell assay is an indicator for the undesirable condition of hypercalcemia. This co-transfection assay is a surrogate assay for in vivo calcemic activity of VDR ligands. […] Preferred assay results are greater than 1000 nM.
(2) Materials and Method for The Caco-2 Cell Assay:
Caco-2 cells, grown in phenol red free, DMEM (Invitrogen, Carlsbad, Calif.) containing 10% charcoal-stripped FCS (Hyclone, Logan, Utah), were transfected with Fugene 6 reagent (Roche Diagnostics, Indianapolis, Ind.). Cells (5000/well) were plated 18 h before transfection in a 96 well plate. The Cells were transfected with Gal4-responsive reporter pFRLuc (150 ng, Stratagene, La Jolla Calif.) and the receptor expression vector pGal4-VDR-LBD (10 ng), along with Fugene 6 reagent (0.2 μl/well). The DNA-Fugene complex was formed by incubating the mixture for 30 min at room temperature. The cells were transfected in triplicate for 5 h, and treated with various concentrations of VDR ligands (form 0.01 nM to 10,000 nM concentration range) 18 h post-transfection. The luciferase activity was quantified using Steady-Glo reagent kit (Promega, Madison, Wis.) as per manufacturer's specifications.

[3] = Mouse hypercalcemia assay; details: oral gavage for 6 days, serum ionized calcium 6 hours after last dosing
Protocol: The Mouse Hypercalcemia Assay is a six day hypercalcemia test for toxicity and selectivity. Acceptable test results are levels greater than 300 μg/kg/day. Preferred assay results are levels greater than 1000 μg/day.
(4) Materials and Method for the Mouse Hypercalcemia Assay:
Weanling, virus—antibody-free, five to six weeks old female DBF mice (Harlan, Indianapolis, Ind.) are used for all the studies. Animals are allowed to acclimate to local vivarium conditions for 2 days. […] The animals then are divided into groups with 4-5 mice per group. Different doses of test compounds prepared in 10% Ethanol and 90% sesame oil are administered to mice orally via gavage for 6 days. 1α-25(OH)2D3 0.5 μg/kg/d was also given to one group of mice as the positive control. […] Raw data of group differences is assessed by analysis of variance (ANOVA) using Fisher's protected least significant difference (PLSD) where the significance level was P<0.05.

In the case of `CCC(CC)(c1ccc(OC[C@H](O)C(C)(C)C)c(C)c1)c1ccc(OS(C)(=O)=O)c(C)c1` (single isomer, unassigned) [Ex. 2, 3′-[4-(2-hydroxy-3,3-dimethylbutoxy)-3-methylphenyl]-3′-[4-(methanesulfonyloxy)-3-methylphenyl]pentane], the EC50 [1] is reported as 0.0051 µM, the EC50 [2] is reported as 46.5 nM and the “Mouse Hypercal” value [3] is reported as 50 µg/kg/day.
In the case of `CCC(CC)(c1ccc(OC[C@H](O)C(C)(C)C)c(C)c1)c1ccc(OS(C)(=O)=O)c(C)c1` (single isomer, unassigned) [Ex. 3, 3′-[4-(2-hydroxy-3,3-dimethylbutoxy)-3-methylphenyl]-3′-[4-(methanesulfonyloxy)-3-methylphenyl]pentane], the EC50 [1] is reported as 0.0163 µM, the EC50 [2] is reported as 133 nM and the “Mouse Hypercal” value [3] is reported as 50 µg/kg/day.
In the case of `CCC(CC)(c1ccc(OCC(O)C(C)(C)C)c(C)c1)c1ccc(N(C)S(C)(=O)=O)c(C)c1` (single isomer, unassigned) [Ex. 20, N-(4-{1-ethyl-1-[4-(2-hydroxy-3,3-dimethyl-butoxy)-3-methyl-phenyl]-propyl}-2-methyl-phenyl)-N-methyl-methanesulfonamide], the EC50 [1] is reported as 0.0281 µM and the “Mouse Hypercal” value [3] is reported as 500 µg/kg/day.
For `CCC(CC)(c1ccc(OCC(O)CO)c(C)c1)c1ccc(OCC(O)C(C)(C)C)c(C)c1` (centres unmarked) [BB, 3-(4-{1-Ethyl-1-[4-(2-hydroxy-3,3-dimethyl-butoxy)-3-methyl-phenyl]-propyl}-2-methyl-phenoxy)-propane-1,2-diol, reference compound], the EC50 ([1]; Rattus norvegicus, 48 h) was 0.011 µM and the “Mouse Hypercal” value [3] was 20 µg/kg/day.
Work on `CCC(CC)(c1ccc(OCC(=O)C(C)(C)C)c(C)c1)c1ccc(OS(C)(=O)=O)c(C)c1` [Ex. 4, 3′-[4-(2-oxo-3,3-dimethylbutoxy)-3-methylphenyl]-3′-[4-(methanesulfonyloxy)-3-methylphenyl]pentane] yielded an EC50 ([1]; Rattus norvegicus, 48 h) of 0.00091 µM and an EC50 [2] of 164 nM.
Work on `CCC(CC)(c1ccc(OCC(=O)C(C)(C)C)c(C)c1)c1ccc(OS(=O)(=O)CC)c(C)c1` [Ex. 8, 3′-[4-(2-oxo-3,3-dimethylbutoxy)-3-methylphenyl]-3′-[4-(ethanesulfonyloxy)-3-methylphenyl]pentane] yielded an EC50 ([1]; Rattus norvegicus, 48 h) of 0.00348 µM and an EC50 [2] of 34.8 nM.
Work on `CCC(CC)(c1ccc(OCC(O)C(C)(C)C)c(C)c1)c1ccc(OS(=O)(=O)CC)c(C)c1` (centres unmarked) [Ex. 9, 3′-[4-(2-hydroxy-3,3-dimethylbutoxy)-3-methylphenyl]-3′-[4-(ethanesulfonyloxy)-3-methylphenyl]pentane] yielded an EC50 [2] of 13 nM.
With `CCC(CC)(c1ccc(OCC(C)(O)C(C)(C)C)c(C)c1)c1ccc(OS(=O)(=O)CC)c(C)c1` (centres unmarked) [Ex. 10, 3′-[4-(2-hydroxy-2-methyl-3,3-dimethylbutoxy)-3-methylphenyl]-3′-[4-(ethanesulfonyloxy)-3-methylphenyl]pentane] the EC50 ([1]; Rattus norvegicus, 48 h) was 0.0003 µM and the EC50 [2] was 15 nM.
For `CCC(CC)(c1ccc(NS(C)(=O)=O)c(C)c1)c1ccc(OCC(O)C(C)(C)C)c(C)c1` (centres unmarked) [Ex. 12, 3′-[4-(2-Hydroxy-3,3-dimethylbutoxy)-3-methylphenyl]-3′-[4-(methanesulfonylamino)-3-methylphenyl]pentane], the EC50 ([1]; Rattus norvegicus, 48 h) was 0.00233 µM and the EC50 [2] was 112 nM.
In the case of `CCC(CC)(c1ccc(OCC(O)C(C)(C)C)c(C)c1)c1ccc(N(C)S(C)(=O)=O)c(C)c1` (centres unmarked) [Ex. 19, N-(4-{1-Ethyl-1-[4-(2-hydroxy-3,3-dimethyl-butoxy)-3-methyl-phenyl]-propyl}-2-methyl-phenyl)-N-methyl-methanesulfonamide], the EC50 ([1]; Rattus norvegicus, 48 h) is reported as 0.0168 µM.
In the case of `CCC(CC)(c1ccc(OCC(=O)C(C)(C)C)c(C)c1)c1ccc(N(S(=O)(=O)CC)S(=O)(=O)CC)c(C)c1` [Ex. 22, N-(4-{1-[4-(3,3-dimethyl-2-oxo-butoxy)-3-methyl-phenyl]-1-ethyl-propyl}-2-methyl-phenyl)-N,N-bis-ethanesulfonamide], the EC50 ([1]; Rattus norvegicus, 48 h) is reported as 0.0298 µM and the “Mouse Hypercal” value [3] is reported as 500 µg/kg/day.
For `CCC(CC)(c1ccc(OCC(=O)C(C)(C)C)c(C)c1)c1ccc(N(C)S(=O)(=O)CC)c(C)c1` [Ex. 24, N-(4-{1-[4-(3,3-Dimethyl-2-oxo-butoxy)-3-methyl-phenyl]-1-ethyl-propyl}-2-methyl-phenyl)-N-methyl-ethanesulfonamide], the EC50 ([1]; Rattus norvegicus, 48 h) was 0.0447 µM and the “Mouse Hypercal” value [3] was under 1000 µg/kg/day.
With `CCC(CC)(c1ccc(NS(=O)(=O)C(F)(F)F)c(C)c1)c1ccc(OCC(=O)C(C)(C)C)c(C)c1` [Ex. 27, N-(4-{1-[4-(3,3-Dimethyl-2-oxo-butoxy)-3-methyl-phenyl]-1-ethyl-propyl}-2-methyl-phenyl)-trifluoromethanesulfonamide] the EC50 ([1]; Rattus norvegicus, 48 h) was 0.0106 µM and the “Mouse Hypercal” value [3] was 500 µg/kg/day.
With `CCC(CC)(c1ccc(OCC(=O)C(C)(C)C)c(C)c1)c1ccc(N(S(=O)(=O)CC(F)(F)F)S(=O)(=O)CC(F)(F)F)c(C)c1` [Ex. 28, N-(4-{1-[4-(3,3-Dimethyl-2-oxo-butoxy)-3-methyl-phenyl]-1-ethyl-propyl}-2-methyl-phenyl)-N,N-bis-2,2,2-trifluoro-ethanesulfonamide] the EC50 ([1]; Rattus norvegicus, 48 h) was 0.0179 µM and the “Mouse Hypercal” value [3] was 1000 µg/kg/day.
For `CCC(CC)(c1ccc(NS(=O)(=O)CC(F)(F)F)c(C)c1)c1ccc(OCC(=O)C(C)(C)C)c(C)c1` [Ex. 29, N-(4-{1-[4-(3,3-Dimethyl-2-oxo-butoxy)-3-methyl-phenyl]-1-ethyl-propyl}-2-methyl-phenyl)-2,2,2-trifluoro-ethanesulfonamide], the EC50 ([1]; Rattus norvegicus, 48 h) was 0.00458 µM and the “Mouse Hypercal” value [3] was 100 µg/kg/day.
Work on `CCC(CC)(c1ccc(OCC(=O)C(C)(C)C)c(C)c1)c1ccc(N(CCSC)S(C)(=O)=O)c(C)c1` [Ex. 30, N-(4-{1-[4-(3,3-Dimethyl-2-oxo-butoxy)-3-methyl-phenyl]-1-ethyl-propyl}-2-methyl-phenyl)-N-(2-methylsulfanyl-ethyl)-methanesulfonamide] yielded an EC50 ([1]; Rattus norvegicus, 48 h) of 0.104 µM.
For `CCSCCS(=O)(=O)Nc1ccc(C(CC)(CC)c2ccc(OCC(=O)C(C)(C)C)c(C)c2)cc1C` [Ex. 31, N-(4-{1-[4-(3,3-Dimethyl-2-oxo-butoxy)-3-methyl-phenyl]-1-ethyl-propyl}-2-methyl-phenyl)-2-ethylsulfanyl-ethanesulfonamide], the EC50 ([1]; Rattus norvegicus, 48 h) was 0.044 µM.
With `CCC(CC)(c1ccc(NS(=O)(=O)CCS(=O)(=O)CC)c(C)c1)c1ccc(OCC(=O)C(C)(C)C)c(C)c1` [Ex. 32, N-(4-{1-[4-(3,3-Dimethyl-2-oxo-butoxy)-3-methyl-phenyl]-1-ethyl-propyl}-2-methyl-phenyl)-2-ethanesulfonyl-ethanesulfonamide] the EC50 ([1]; Rattus norvegicus, 48 h) was 0.24 µM.
With `CCC(CC)(c1ccc(NS(=O)(=O)CCSC(C)C)c(C)c1)c1ccc(OCC(=O)C(C)(C)C)c(C)c1` [Ex. 33, N-(4-{1-[4-(3,3-Dimethyl-2-oxo-butoxy)-3-methyl-phenyl]-1-ethyl-propyl}-2-methyl-phenyl)-2-isopropylsulfanyl-ethanesulfonamide] the EC50 ([1]; Rattus norvegicus, 48 h) was 0.0494 µM.
`CCC(CC)(c1ccc(NS(=O)(=O)CCS(=O)(=O)C(C)C)c(C)c1)c1ccc(OCC(=O)C(C)(C)C)c(C)c1` [Ex. 34, N-(4-{1-[4-(3,3-Dimethyl-2-oxo-butoxy)-3-methyl-phenyl]-1-ethyl-propyl}-2-methyl-phenyl)-2-(propane-2-sulfonyl)-ethanesulfonamide] showed an EC50 ([1]; Rattus norvegicus, 48 h) of 0.374 µM.
With `CCC(CC)(c1ccc(OCC(O)C(C)(C)C)cc1)c1ccc(OS(C)(=O)=O)c(C)c1` (centres unmarked) [Ex. 37, 3′-[4-(2-hydroxy-3,3-dimethylbutoxy)-phenyl]-3′-[4-methylsulfonyloxy-3-methylphenyl]pentane] the EC50 ([1]; Rattus norvegicus, 48 h) was 0.0672 µM and the EC50 [2] was 308 nM.
In the case of `CCC(CC)(c1ccc(OS(C)(=O)=O)cc1)c1ccc(OCC(=O)C(C)(C)C)c(C)c1` [Ex. 38, 3′-[4-(2-oxo-3,3-dimethylbutoxy)-3-methylphenyl]-3′-[4-methylsulfonyloxy-phenyl]pentane], the EC50 ([1]; Rattus norvegicus, 48 h) is reported as 0.00209 µM and the “Mouse Hypercal” value [3] is reported as under 300 µg/kg/day.
`CCC(CC)(c1ccc(OCC(=O)C(C)(C)C)cc1)c1cc(C)c(OS(C)(=O)=O)c(C)c1` [Ex. 41, 3′-[4-(2-oxo-3,3-dimethylbutoxy)-phenyl]-3′-[3,5-dimethyl-4-methylsulfonyloxy-phenyl]pentane] gave an EC50 ([1]; Rattus norvegicus, 48 h) of 0.111 µM and an EC50 [2] of 614 nM.
